Reference: patent US11571404B2, “Compositions and methods for the treatment of liver diseases and disorders associated with one or both of hyperammonemia or muscle wasting” (priority 2017, dated 2023)

Key:
[1] = tested on: C3A derivative clone of the HepG2 Hepatocellular Carcinoma cell line; assay: Hepatic albumin production in cirrhosis media, ELISA normalized to nuclei (Example 9); assay type: cell-based, human; details: for Albumin/Nuclei (mean): 48 hours
Method: Media composed of amino acids consistent with profiles of cirrhotic individuals was tested for effect on production of albumin. Effects of […], components and comparator compositions on albumin production were determined. Methods: The ability of […] to increase hepatocyte albumin production was assessed using the C3A derivative clone of the HepG2 Hepatocellular Carcinoma cell line (ATCC, CRL-10741). 2.0e4 cells per well were seeded on day 0 in a 96-well microplate (Corning; 3903) in Dulbecco's Modified Eagle Medium (DMEM, Corning) supplemented with 10% fetal bovine serum (Corning) and 0.2% Primocin (InVivoGen, San Diego, Calif.) and incubated for 24 hours at 37° C., 5% CO2. […] Cells were cultured for 48 hours at 37° C., 5% CO2, media was collected, cells were washed 1× in PBS, fixed in 4% paraformaldehyde, washed 2× in PBS, nuclei were stained with Hoechst 33342 according to manufacturer's instructions (Life Technologies, H3570) and then washed 2× in PBS. Media albumin levels were assessed by R&D Systems's DuoSet ELISA Development System for Human Serum Albumin (R&D Systems, DY1455) and nuclei were counted using Molecular Devices Image Express High Content Screening platform and pre-installed nuclei counting analysis pipeline. Albumin levels were normalized to total nuclei in order to derive a per cell albumin production ratio.

primary human myotubes = assay: TNF induced myotube atrophy, MYOSCREEN platform (Example 10); assay type: cell-based; parameters: Myotube Area mean: unit not given here; details: for Fusion Index mean / Myotube Area mean: TNFalpha 10 ng/mL, N=3
Method: Methods: Experiment was performed using the […] platform (CYTOO, France). Briefly, […] is a proprietary technology based on micropatterning and defined microenvironments that establish highly mature primary human myotubes with substantial striation and low morphological variability. Primary cells derived from skeletal muscle of healthy human donors are differentiated to form myotubes (multinucleated syncytia) that are highly reminiscent of human muscle tissue. […] is a fully automated platform that interrogates multiple phenotypes relevant for muscle physiology including myotube area, fusion index, and total nuclei. On Day 0 expanded primary myoblasts from a healthy human donor were seeded at 10,000 cells per well for 24 hour at 37 deg C. […] Importantly, treatment groups were prepared in PBS and final concentration in all wells, including controls, was 10% PBS. On Day 2 cells were switched to Cirrhosis Media based on DMEM comprising 0.1% horse serum and 0.5× amino acids at ratios of plasma of cirrhosis (Kakazu et al., 2013) containing atrophy inducer TNFalpha (10 ng/mL) and again treated according to Day 1 and Table 16. On Day 6 cells were fixed with 5% Formalin for 30 minutes at room temperature. Fixed cells were processed for immunostaining with primary antibody against Troponin T to stain myotubes and Hoeschst dye for nuclei. Image acquisition was done at 10× magnification using Operetta High Content Imaging System and analysis was performed using a proprietary and dedicated algorithm on the Acapella High Content Imaging System (Perkin Elmer, CYTOO).

[2] = dose 5X of concentration in cirrhosis media
[3] = dose 10x of concentration in cirrhosis media
[4] = dose 20X of concentration in cirrhosis media
[5] = dose 30X of concentration in cirrhosis media

For `CC(C)C[C@H](N)C(=O)O` [L, L-leucine], the “Albumin/Nuclei (mean)” value ([1]; Dose 5X of basal media concentrations) was −0.087, the “Albumin/Nuclei (mean)” value ([1]; Dose 10X of basal media concentrations) was −0.116 and the “Albumin/Nuclei (mean)” value ([1]; Dose 20X of basal media concentrations) was −0.219. For the same compound, the “Albumin/Nuclei (mean)” value ([1]; Dose 40X of basal media concentrations) was 0.148, the “Effect on Albumin” value ([1]; over the dose curve 5X-40X) was “No Effect” and the “Effect on Atrophy” value (primary human myotubes; TNF induced myotube atrophy, overall call across doses) was “no effect”. For the same compound, the “Fusion Index mean” value (primary human myotubes; [2]) was 0.087, the “Myotube Area mean” value (primary human myotubes; [2]) was 4499.140 and the “Fusion Index mean” value (primary human myotubes; [3]) was 0.094. The “Myotube Area mean” value (primary human myotubes; [3]) was 4480.850, the “Fusion Index mean” value (primary human myotubes; [4]) was 0.091 and the “Myotube Area mean” value (primary human myotubes; [4]) was 4679.729. The “Fusion Index mean” value (primary human myotubes; [5]) was 0.092 and the “Myotube Area mean” value (primary human myotubes; [5]) was 4579.231.
